Entries after “also recorded” stand apart in the source; their conditions may differ.
Experiments:
Assay in all cases: Minimum inhibitory / bactericidal concentration (MIC/MBC) test, 96-well serial dilution
[1] = tested on: Escherichia coli J53; assay type: cell-based; details: n=6
Method: (§1) A minimum inhibitory concentration (MIC) test was conducted to measure the efficiency of certain silver-based antimicrobials against each bacterial isolate. A sterile round-bottom plastic 96-well plate containing […] of serially 1:2 diluted concentrations of antimicrobial solutions was inoculated with […] of 5-8×10^5 CFU/ml of each bacterial isolate. Each antimicrobial sample was tested at 15 serially diluted concentrations starting at their original highest concentration (0.015-1000 μg/ml).
(§2) After 24 h of incubation, 10 μl of the suspension from all of the clear wells (showing no bacterial growth) was dropped onto a MH agar plate and incubated for 24 h.
(§3) The mass concentration of these nanoparticles dispersed in water was 1.0 mg/mL The Silvadur ET solution containing 2.6-3.1 wt % silver ions was used at its original concentration (1.0 mg/mL). Silver nitrate was also dissolved in distilled water to create a 1 mg/mL solution. A gram negative (Escherichia coli J53) and gram positive (staphylococcus aureus—a common bacteria to cause skin infections) bacteria were employed for the experiment. Cation-adjusted Mueller-Hinton (MH) broth and agar (Difco Laboratories, Detroit, Mich., USA) were utilized to prepare bacterial cultivating medium. Isolated bacterial colonies were grown overnight in an incubator (37° C., 5% CO2) from frozen samples on an agar plate. For Agresistant bacteria (E. coli J53 [pMG101]), […] ampicillin sodium salt (Fisher Scientific, USA) was also added to the agar plates. The bacterial colony was suspended in phosphate buffered saline (PBS) to obtain 0.5 McFarland (10^5 CFU/ml). Microplates were incubated at 37° C. and shaken at 200 rpm for 24 hours. To control the accuracy of bacterial seeding density, bacteria were diluted in PBS at 103, 104, 105, and 106 and cultured overnight.
(§4) A gram negative (Escherichia coli J53) and gram positive (staphylococcusaureus, a common bacteria that causes skin infections) bacteria were employed for the experiment. Cation-adjusted Mueller-Hinton (MH) broth and agar (Difco Laboratories, Detroit, Mich., USA) were used to prepare bacterial cultivating medium. Isolated bacterial colonies were grown overnight in an incubator (37° C., 5% CO2) from frozen samples on an agar plate. For Ag-resistant bacteria (E. coli J53 [pMG101]) […] ampicillin sodium salt (Fisher Scientific, USA) was also added to the agar plates. The bacterial colony was suspended in phosphate buffered saline (PBS) to get 0.5 McFarland (10^5 CFU/ml). Microplates were incubated at 37° C. and shaken at 200 rpm for 24 h. To control the accuracy of bacterial seeding density, bacteria were diluted in PBS at 10^3, 10^4, 10^5, and 10^6 and plated overnight.
as §1, with “The minimum” for “A minimum”, “of silver based” for “of certain silver-based”, “μg/ml). […] After 24 h of incubation, 10 μl of the suspension from all of the clear wells (showing no bacterial growth) was dropped onto a MH agar plate and incubated for 24 h.” for “μg/ml).”

[2] = tested on: Staphylococcus aureus; assay type: cell-based; details: n=6
Method: as §1, §2, §3, §4
as §1, with “The minimum” for “A minimum”, “of silver based” for “of certain silver-based”, “μg/ml). […] After 24 h of incubation, 10 μl of the suspension from all of the clear wells (showing no bacterial growth) was dropped onto a MH agar plate and incubated for 24 h.” for “μg/ml).”

[3] = tested on: E. Coli J53pMG101 (silver resistant); assay type: cell-based, Escherichia coli; details: up to 1000 μg/ml
Method: as §1, §2
The mass concentration of these nanoparticles dispersed in water was 1.0 mg/mL The Silvadur ET solution containing 2.6-3.1 wt % silver ions was used at its original concentration (1.0 mg/mL). Silver nitrate was also dissolved in distilled water to create a 1 mg/mL solution. A gram negative (Escherichia coli J53) and gram positive (staphylococcus aureus—a common bacteria to cause skin infections) bacteria were employed for the experiment. Cation-adjusted Mueller-Hinton (MH) broth and agar (Difco Laboratories, Detroit, Mich., USA) were utilized to prepare bacterial cultivating medium. Isolated bacterial colonies were grown overnight in an incubator (37° C., 5% CO2) from frozen samples on an agar plate. […]

[4] = Table 1, Example 1, 24 h incubation

## O=[N+]([O-])[O-].[Ag+] [Silver nitrate]
[1]; [4]
  Minimum Inhibitory Concentrations (MIC) Escherichia coli J53: 7.81 µg/mL
[1]; Table 2, Example 1
  Minimum Bacterial Concentrations (MBC) Escherichia coli J53: 15.62 µg/mL
[1]; Table 9, Example 4
  Minimum Inhibitory Concentrations (MIC) Escherichia coli J53: 7.81 µg/mL
[1]; Table 10, Example 4
  Minimum Bacterial Concentrations (MBC) Escherichia coli J53: 15.62 µg/mL
[2]; [4]
  Minimum Inhibitory Concentrations (MIC) Staphylococcus aureus: 15.62 µg/mL
[2]; Table 2, Example 1
  Minimum Bacterial Concentrations (MBC) Staphylococcus aureus: 31.25 µg/mL
[2]; Table 9, Example 4
  Minimum Inhibitory Concentrations (MIC) Staphylococcus aureus: 15.62 µg/mL
[2]; Table 10, Example 4
  Minimum Bacterial Concentrations (MBC) Staphylococcus aureus: 31.25 µg/mL
[3]
  Observation of silver resistant E. coli J53 (pMG101) in the presence of the antimicrobial: confirmed the resistance of E. coli J53 to silver; also recorded: confirmed its resistance to silver

From US20150290354A1, “NONWOVEN FIBER MATERIALS” (NORTH CAROLINA STATE UNIVERSITY, priority 2012, published 2015)
